Data as given in article PMC12136037, “Type II kinase inhibitors that target Parkinson’s disease–associated LRRK2” (Science Advances, 2025).
“And” between values parts separate entries of the source, which are not always exact repeats. Equal values may be shown once.

Key:
LRRK2^RCKW = target: T1, LRRK2^RCKW (Homo sapiens, UniProt Q5S007); experiment: Biochemical LRRK2 activity assay (PhosphoSense, AssayQuant SOX peptide AQT0615); conditions: for IC50: LRRK2^RCKW kinase activity, in vitro; for normalized response (LRRK2 activity): normalized to 0% (no kinase) and 100% (no inhibitor) control, two singlicate columns per compound
T1 construct: LRRK2 R1327 to E2527; His6-Z-tag (TEV cleavable) (N, cleaved yes); host or cells: Sf9 insect cells (baculovirus)
T1 sequence (Q5S007 1327-2527): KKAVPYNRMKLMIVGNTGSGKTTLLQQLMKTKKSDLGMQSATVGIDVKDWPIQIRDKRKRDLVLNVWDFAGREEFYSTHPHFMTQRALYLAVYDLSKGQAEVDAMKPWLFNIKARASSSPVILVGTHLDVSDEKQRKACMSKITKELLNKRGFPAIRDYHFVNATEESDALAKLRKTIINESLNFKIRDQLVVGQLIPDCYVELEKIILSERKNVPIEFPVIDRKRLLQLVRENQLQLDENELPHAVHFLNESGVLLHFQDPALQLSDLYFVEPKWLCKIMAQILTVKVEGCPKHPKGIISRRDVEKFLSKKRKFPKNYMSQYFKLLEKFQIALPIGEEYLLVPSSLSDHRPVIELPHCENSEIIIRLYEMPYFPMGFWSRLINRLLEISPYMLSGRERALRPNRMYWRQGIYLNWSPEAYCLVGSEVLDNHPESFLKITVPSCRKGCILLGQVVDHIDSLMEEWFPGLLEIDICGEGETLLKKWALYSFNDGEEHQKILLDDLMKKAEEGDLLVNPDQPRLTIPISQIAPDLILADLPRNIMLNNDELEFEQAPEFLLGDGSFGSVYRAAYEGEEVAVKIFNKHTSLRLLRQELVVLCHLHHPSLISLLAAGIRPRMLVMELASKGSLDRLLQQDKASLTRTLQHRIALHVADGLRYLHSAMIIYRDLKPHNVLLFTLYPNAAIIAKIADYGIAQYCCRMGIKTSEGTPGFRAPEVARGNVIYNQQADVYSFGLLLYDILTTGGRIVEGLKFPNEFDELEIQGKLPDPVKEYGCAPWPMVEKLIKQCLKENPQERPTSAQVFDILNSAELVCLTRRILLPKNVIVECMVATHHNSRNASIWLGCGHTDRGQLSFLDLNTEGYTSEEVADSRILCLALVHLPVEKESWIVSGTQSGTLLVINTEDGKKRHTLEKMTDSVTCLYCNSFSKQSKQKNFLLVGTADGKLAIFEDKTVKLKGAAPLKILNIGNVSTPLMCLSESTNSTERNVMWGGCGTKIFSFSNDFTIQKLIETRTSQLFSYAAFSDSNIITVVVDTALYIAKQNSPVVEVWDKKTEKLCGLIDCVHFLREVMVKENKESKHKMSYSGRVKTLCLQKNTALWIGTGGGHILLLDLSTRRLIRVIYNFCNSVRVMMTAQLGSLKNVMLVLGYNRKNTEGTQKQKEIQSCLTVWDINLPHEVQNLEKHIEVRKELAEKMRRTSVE
Procedure, shortened: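 Controls lacked protein and compound (0%) or compound only (100%). IC50 derived by nonlinear regression of normalized response versus log[inhibitor].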

[1] = target: T2, ~100 representative kinases (Homo sapiens, UniProt Q96GD4); experiment: DSF 100 kinase selectivity screen; type: binding; conditions: Protein AURKB; average of three replicates;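 further: compound tested at 20 µM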
T2 construct: Recombinant protein kinase domains with a concentration of 2 μM
Procedure, shortened: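 Each kinase domain, at 2 μM, is mixed with 20 μM test compound and SYPRO Orange in Hepes (20 mM, pH 7.5) with 500 mM NaCl. Temperature is then raised at 3°C/min and fluorescence-monitored unfolding yields the melting temperature change, ΔTm in degrees Celsius.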

T2 sequence (Q96GD4 whole entry, the tested form may be a part): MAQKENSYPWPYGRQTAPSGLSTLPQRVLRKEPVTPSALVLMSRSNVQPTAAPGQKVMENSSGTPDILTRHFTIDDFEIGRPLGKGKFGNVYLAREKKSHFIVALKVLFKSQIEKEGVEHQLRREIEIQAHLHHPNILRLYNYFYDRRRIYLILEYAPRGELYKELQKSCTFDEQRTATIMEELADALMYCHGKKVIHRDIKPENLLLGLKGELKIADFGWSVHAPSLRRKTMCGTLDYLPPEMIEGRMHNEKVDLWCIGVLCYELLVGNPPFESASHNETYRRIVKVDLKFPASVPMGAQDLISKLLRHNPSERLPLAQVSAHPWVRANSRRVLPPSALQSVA

SMILES	IC50 (LRRK2^RCKW)	normalized response (LRRK2 activity) (LRRK2^RCKW; log[inhibitor(mol)] -4.82391)	normalized response (LRRK2 activity) (LRRK2^RCKW; log[inhibitor(mol)] -5.12494)	normalized response (LRRK2 activity) (LRRK2^RCKW; log[inhibitor(mol)] -5.60206)	normalized response (LRRK2 activity) (LRRK2^RCKW; log[inhibitor(mol)] -6.30103)	normalized response (LRRK2 activity) (LRRK2^RCKW; log[inhibitor(mol)] -6.90309)	normalized response (LRRK2 activity) (LRRK2^RCKW; log[inhibitor(mol)] -7.30103)	normalized response (LRRK2 activity) (LRRK2^RCKW; log[inhibitor(mol)] -7.60206)	normalized response (LRRK2 activity) (LRRK2^RCKW; log[inhibitor(mol)] -8.09691)	normalized response (LRRK2 activity) (LRRK2^RCKW; log[inhibitor(mol)] -8.61979)	normalized response (LRRK2 activity) (LRRK2^RCKW; log[inhibitor(mol)] -9.09691)	normalized response (LRRK2 activity) (LRRK2^RCKW; log[inhibitor(mol)] -9.39794)	dTm [1]
O=C(Nc1cccc(-c2c[nH]c3ncnc(N4CCOCC4)c23)c1)C1(C(=O)Nc2ccc(F)c(Br)c2)CC1 [Compound 19]	0.264 ± 0.019 µM	3.161% and 1.4%	3.805% and 3.935%	9.506% and 13.5388%	29.4238% and 33.7614%	67.8273% and 68.8623%	84.3755% and 91.2634%	88.4282% and 94.2182%	94.3856% and 94.7313%	99.7343% and 99.0059%	100.123% and 100.393%	97.0165% and 71.9323%	5.64 K
Cc1ccc(C(=O)Nc2ccc(CN3CCN(C)CC3)c(C(F)(F)F)c2)cc1C#Cc1cnc2[nH]ncc2c1 [GZD-824, reference compound]	–	37.9506% and 22.443%	2.902% and -0.761%	–	-12.6856% and -11.6517%	-14.8328% and -12.1996%	-10.7195% and -10.9051%	-2.449% and -0.1425%	77.0511% and 75.7389%	100.887% and 96.9327%	102.124% and 93.9328%	100.847% and 103.781%	1.02 K
COc1cc(S(C)(=O)=O)ccc1Nc1nc(N(C)C)c2c(Cl)c[nH]c2n1 [Compound 37]	0.00721 ± 0.0021 µM	24.6753% and 13.9482%	2.952% and 3.194%	-7.27% and -5.12%	-12.6171% and -9.349%	-7.193% and -5.751%	5.9468% and 5.579%	17.6994% and 24.1378%	34.6729% and 53.1381%	84.0195% and 83.6411%	89.904% and 89.2624%	99.9785% and 100.571%	-0.0653 K
O=C(Nc1cccc(-c2c[nH]c3ncnc(N4CCOCC4)c23)c1)C1(C(=O)Nc2ccc(F)c(Br)c2F)CC1 [Compound 26]	0.134 ± 0.005 µM	1.939% and 8.5359%	9.123% and 11.3015%	44.4326% and 42.5431%	13.6454% and 21.2987%	53.1512% and 54.1949%	78.8268% and 70.6625%	83.0818% and 80.8923%	91.3569% and 90.9395%	93.5464% and 85.6887%	97.2382% and 103.098%	97.1774% and 94.1421%	0.97 K
Cc1ccc(-n2nc(C(C)(C)C)cc2NC(=O)Nc2cccc(-c3c[nH]c4ncnc(N5CCOCC5)c34)c2)cc1 [Compound 29]	0.0202 ± 1e-05 µM	–	-15.0137% and -16.6919%	-14.1253% and -13.1052%	-11.8493% and -10.5551%	-5.6961% and -4.1002%	9.533% and 17.3374%	45.8935% and 45.9868%	84.3047% and 80.6906%	106.121% and 110.711%	109.51% and 103.466%	104.536% and 110.261%	3.15 K
Cc1ccc(C(=O)Nc2ccc(CN3CCN(C)CC3)c(C(F)(F)F)c2)cc1C#Cc1c[nH]c2ncnc(N3CCOCC3)c12 [Compound 1]	0.756 ± 0.02 µM	–	7.718% and 4.844%	24.5327% and 23.4304%	59.5875% and 59.3462%	87.2332% and 86.1364%	105.83% and 97.719%	93.8691% and 88.2314%	93.7155% and 94.1323%	97.5599% and 105.43%	94.6588% and 101.816%	98.0974% and 115.57%	1.01 K

The next lines start with the values.

IC50 (LRRK2^RCKW)	normalized response (LRRK2 activity) (LRRK2^RCKW; log[inhibitor(mol)] -4.82391)	normalized response (LRRK2 activity) (LRRK2^RCKW; log[inhibitor(mol)] -5.12494)	normalized response (LRRK2 activity) (LRRK2^RCKW; log[inhibitor(mol)] -5.60206)	normalized response (LRRK2 activity) (LRRK2^RCKW; log[inhibitor(mol)] -6.30103)	normalized response (LRRK2 activity) (LRRK2^RCKW; log[inhibitor(mol)] -6.90309)	normalized response (LRRK2 activity) (LRRK2^RCKW; log[inhibitor(mol)] -7.30103)	normalized response (LRRK2 activity) (LRRK2^RCKW; log[inhibitor(mol)] -7.60206)	normalized response (LRRK2 activity) (LRRK2^RCKW; log[inhibitor(mol)] -8.09691)	normalized response (LRRK2 activity) (LRRK2^RCKW; log[inhibitor(mol)] -8.61979)	normalized response (LRRK2 activity) (LRRK2^RCKW; log[inhibitor(mol)] -9.09691)	normalized response (LRRK2 activity) (LRRK2^RCKW; log[inhibitor(mol)] -9.39794)	dTm [1]	SMILES
0.135 ± 0.002 µM	–	-8.095% and -6.809%	75.5755% and 70.6669%	8.742% and 11.7467%	50.7191% and 51.183%	75.6682% and 82.0657%	86.9301% and 90.6015%	94.0388% and 92.0065%	101.276% and 93.5219%	104.187% and 96.8267%	100.869% and 63.9823%	-0.56 K	Cc1ccc(-n2nc(C(C)(C)C)cc2NC(=O)Nc2cccc(-c3c[nH]c4nc(Cl)nc(N5CCOCC5)c34)c2)cc1 [Compound 30]
0.989 ± 0.032 µM	10.5992% and 8.534%	11.3407% and 2.1893%	26.743% and 30.013%	46.8199% and 60.7415%	90.6286% and 91.37%	100.861% and 98.8124%	104.989% and 102.561%	99.7669% and 103.043%	100.861% and 99.0776%	103.172% and 100.678%	101.258% and 104.313%	-0.43 K	O=C(Nc1cccc(-c2c[nH]c3ncnc(N4CCOCC4)c23)c1)C1(C(=O)Nc2cccc3c2CCC3)CC1 [Compound 11]
0.00496 ± 0.00011 µM	–	-4.747% and -10.7141%	-11.8877% and -7.237%	-22.7354% and -19.8398%	-16.5877% and -9.211%	-3.623% and 0.9398%	12.0233% and 5.13%	39.1206% and 42.4988%	81.2335% and 75.689%	74.4661% and 78.5518%	100.642% and 97.3515%	1.54 K	COc1cc(C(=O)N2CCOCC2)c(F)cc1Nc1nc(N(C)C)c2c(Cl)c[nH]c2n1 [Compound 36]
